Assays:
[1] = system: human having a sense of fatigue; assay: VAS (Visual Analog Scale) analysis before/after mental and physical loads; type: in vivo; conditions: for VAS, Clear-headedness (FIG. 5) / VAS, Concentration (FIG. 5) / VAS, Feeling of body heaviness (FIG. 5) / VAS, Frustration (FIG. 5) / VAS, Mood (FIG. 5) / VAS, Motivation (FIG. 5): vs control group
Procedure: A placebo-controlled, randomized, double-blind, parallel-group study was employed for ingestion of the test food, and two groups, namely, the control group (placebo group) with ingestion of a capsule not containing astaxanthin and the astaxanthin group with ingestion of a capsule containing 6 mg of astaxanthin (120 mg of Haematococcus algae extract and 10 mg of tocotrienol mixture derived from palm oil) were compared through a double-blind method. For ingestion of the test food, the subjects were instructed to ingest one capsule twice daily (total 12 mg of astaxanthin (240 mg of Haematococcus algae extract and 20 mg of tocotrienol mixture derived from palm oil) in two capsules per day), one after breakfast (or after the first meal of the day if no breakfast was taken) and the other after dinner, with water or lukewarm water within 30 min of eating. The overall duration for ingestion was 8 weeks (12 weeks only for the OSA sleep analysis). The subjects were also instructed to record their test food ingestion, drinking, and exercise in a diary every day, from the first day to the last day of ingestion.
The assessment to the subjects consisted of seven questions: “Sense of Fatigue (“sense of fatigue caused by mental load” or “sense of fatigue caused by mental load and physical load”) (best sensation with no fatigue—worst sensation of being too tired to do anything)”, “Clear-headedness (very clear—very dull)”, “Concentration (able to concentrate very easily—unable to concentrate at all)”, “Motivation (highly motivated—totally unmotivated)”, “Mood (very happy—as depressed as I can be)”, “Frustration (not frustrated at all—very frustrated)”, and “Feeling of body heaviness (feeling my body is very light—feeling my body is very heavy)”. For each question, the subjects were instructed to draw a vertical line by intuition on a 100 mm horizontal line to indicate their condition at the time, with the far left end indicating the best condition and the far right end indicating the worst condition. A VAS score was derived by measuring with a ruler the distance from the far left end to the intersection with the vertical line. VAS analysis was performed five times in total in one day: in the morning of the day of assessment (before load application), after application of a physical load and a mental load, at the end of the assessment visit (after a rest period), after mental load application (calculation load; Uchida-Kraepelin test), and after a rest period after mental load application. To determine transient changes in fatigue, the load-induced change was calculated by subtracting the pre-load value from the values after mental load application, after a rest period after mental load application, after application of both loads, and after a rest period therefor. In addition, to determine the effect of test food ingestion alone, ingestion-induced change was calculated by subtracting the pre-load (pre-ingestion) value at week 0 from the pre-load value after 4-week ingestion and after 8-week ingestion.

[2] = system: salivary secretory immunoglobulin A (sIgA); assay: Measurement of salivary secretory immunoglobulin A (EIA); type: in vivo, human
Source text: Salivary cortisol, which was examined as a biochemical index for a mental load, is used as a stress marker because of simplicity of measurement due to the high correlation with blood cortisol, and known to be increased by an acute mental stress, for example, caused at making a speech in front of others or doing mental calculation or by continuous, high-intensity exercise. Because the salivary cortisol concentration is known to show circadian variation, being high in the morning and then declining as the night approaches, mental load application (calculation load; Uchida-Kraepelin test) was performed in the morning in this study. Salivary secretory immunoglobulin A (sIgA) is an antibody produced by B cells that inhibits the proliferation of pathogens on the mucosa of the oral cavity, airway, intestines, and other organs. It is known that reduction of sIgA in saliva is associated with the development of upper respiratory tract infection and that salivary sIgA concentration decreases under chronic stress and increases in a relaxed state.
Saliva samples were collected from the subjects in the morning of the day of assessment (before load application) in the same manner as in (1) of [5-2]. The sIgA concentration in each saliva sample was measured with an enzyme immunoassay (EIA) kit (EIA s-IgA Test Kit, Medical & Biological Laboratories Co., Ltd.).

[3] = system: human having a sense of fatigue; assay: Cycling task on a bicycle ergometer, task performance with a physical load; type: in vivo; conditions: between the groups (FIG. 19)
Procedure: A physical load was applied by a cycling task on a bicycle ergometer. Specifically, the subjects were instructed to pedal for 30 min with a rotation rate of the pedal adjusted to maintain the heart rate at 120 to 130 HR for men and 110 to 120 HR for women. The magnitude of the load was set at a constant level of 80 W for men and 70 W for women. The distance cycled (km) in 30 min was measured, which was used as the task performance with a physical load.

[4] = Study 2: temporal change of human blood (plasma) astaxanthin level on long-term ingestion; type: in vivo
Procedure: This study is a study in humans to confirm how the blood (plasma) astaxanthin level changes through long-term ingestion of astaxanthin. While the blood (serum) astaxanthin level was measured at the completion of ingestion (after 12-week ingestion) in Study 1, Study 2 is, specifically, a study in humans to confirm how the blood (plasma) astaxanthin level behaves in the case that the period of ingestion is shorter than 12 weeks.
Ten healthy Japanese men and women at age of 20 years or older and younger than 50 years
Each subject ingested two capsules per day, each capsule containing 60 mg (6 mg in terms of the free form of astaxanthin) of Haematococcus algae extract and 270 mg of edible fat and oil, with water 30 minutes after breakfast (12 mg/day in terms of the free form of astaxanthin) for 42 days.
Blood sampling was performed one day, six days, 13 days, 20 days, 27 days, 34 days, and 42 days after the initiation of ingestion of the capsules to obtain the plasma. The plasma astaxanthin level was measured by using the method in [5-4] in Study 1 with HPLC.

[5] = after application of both loads, after 4-week ingestion, vs control group (FIG. 4)
[6] = after application of both loads, after 8-week ingestion, vs control group (FIG. 4)
[7] = after application of both loads
[8] = after the rest period (after both loads), after 4-week ingestion, vs control group (FIG. 4)
[9] = after the rest period (after both loads), after 8-week ingestion, vs control group (FIG. 4)
[10] = after the rest period (after both loads)
[11] = 2 capsules/day (12 mg/day free form) for 42 days (FIG. 20)

human blood (plasma) astaxanthin level at plateau [4, 11]: approximately 200 ng/mL
time after initiation of ingestion at which plasma astaxanthin level plateaued [4, 11]: about six
human blood (plasma) astaxanthin level during continued ingestion ([4]; as long as ingestion of astaxanthin-containing food was continued): not lowered
Structure (SMILES): CC1=C(/C=C/C(C)=C/C=C/C(C)=C/C=C/C=C(C)/C=C/C=C(C)/C=C/C2=C(C)C(=O)C(O)CC2(C)C)C(C)(C)CC(O)C1=O (stereo not drawn) [astaxanthin, 3,3′-dihydroxy-β,β-carotene-4,4′-dione]
VAS load-induced change, Clear-headedness [1, 5]: marginally significant improvement and enhancement
VAS load-induced change, Mood [1, 5]: significant improvement
VAS load-induced change, Clear-headedness [1, 6]: marginally significant improvement and enhancement
VAS load-induced change, Concentration [1, 6]: marginally significant improvement and enhancement
VAS load-induced change, Feeling of body heaviness [1, 6]: significant improvement
VAS load-induced change, Mood [1, 6]: marginally significant improvement
VAS load-induced change, Motivation [1, 6]: marginally significant enhancement
VAS, Clear-headedness (FIG. 5) [1, 7]: marginally significant improvement
VAS, Concentration (FIG. 5) [1, 7]: marginally significant improvement
VAS, Feeling of body heaviness (FIG. 5) [1, 7]: significant improvement
VAS, Frustration (FIG. 5) [1, 7]: resolution of frustration
VAS, Mood (FIG. 5) [1, 7]: marginally significant improvement
VAS, Motivation (FIG. 5) [1, 7]: marginally significant improvement
VAS load-induced change, Frustration ([1]; after mental load application, after 8-week ingestion, vs control group (FIG. 4)): significant improvement
VAS, Clear-headedness (FIG. 5) ([1]; after mental load application): improvement
VAS, Concentration (FIG. 5) ([1]; after mental load application): improvement
VAS, Feeling of body heaviness (FIG. 5) ([1]; after mental load application): reduction of feeling of body heaviness
VAS, Frustration (FIG. 5) ([1]; after mental load application): significant improvement
VAS, Mood (FIG. 5) ([1]; after mental load application): improvement
VAS, Motivation (FIG. 5) ([1]; after mental load application): improvement
VAS load-induced change, Clear-headedness [1, 8]: marginally significant improvement and enhancement
VAS load-induced change, Mood [1, 8]: marginally significant improvement
VAS load-induced change, Clear-headedness [1, 9]: marginally significant improvement and enhancement
VAS load-induced change, Concentration [1, 9]: marginally significant improvement and enhancement
VAS load-induced change, Feeling of body heaviness [1, 9]: marginally significant improvement
VAS load-induced change, Frustration [1, 9]: significant improvement
VAS, Clear-headedness (FIG. 5) [1, 10]: marginally significant improvement
VAS, Concentration (FIG. 5) [1, 10]: marginally significant improvement
VAS, Feeling of body heaviness (FIG. 5) [1, 10]: marginally significant improvement
VAS, Frustration (FIG. 5) [1, 10]: significant improvement
VAS, Mood (FIG. 5) [1, 10]: improvement
VAS, Motivation (FIG. 5) [1, 10]: improvement
salivary sIgA concentration ([2]; after 8-week ingestion): 41.9 ± 5.5 µg/mL
salivary sIgA concentration ([2]; at pre-ingestion (before load application), astaxanthin group): 46.5 ± 8.2 µg/mL
change in salivary sIgA concentration ([2]; until week 8 of ingestion vs pre-ingestion (FIG. 8)): no significant change
cycling distance ([3]; after 4-week ingestion): no significant difference
cycling distance ([3]; after 8-week ingestion): no significant difference

Reference: patent publication US20220047527A1, “FOOD-AND-DRINK COMPOSITION CONTAINING ASTAXANTHIN” (AstaReal Co., Ltd., priority 2016, published 2022)
